“Also recorded” adds a separate entry of the source. Like-named read-outs stand apart in the source and are kept apart here.
Key:
[1] = tested on: Aβ42 production in mammalian cells; details: Tae-Wan Kim et al., cited from earlier work
γ-secretase = γ-secretase (Homo sapiens, UniProt P49768); test: Cell-free γ-secretase assay (CHAPSO-solubilized membrane fractions, recombinant substrates, Aβ ELISA); type: biochemical
Procedure: (A) CHAPSO-solubilized membrane fractions were incubated with recombinant γ-secretase substrates together with the indicated compounds (at 100 μM) and the levels of Aβ42 and Aβ40 were determined by ELISA as described (27-29). (B) Dose-response of Aβ40 and Aβ42-lowering activity of Rk1 and (20S)Rg3 in a cell-free γ-secretase assay.
Next, the inhibitory effects of Rk1 and (20S)Rg3 on Aβ generation in an in vitro γ-secretase assay was studied. […] In contrast, naproxen, an NSAID without Aβ42-lowering activity, had no effects on Aβ42 production (FIG. 15A).

[2] = tested on: Aβ species, CHO-APP cells; test: Mass spectrometric analysis of Aβ species produced from CHO-APP cells; type: cell-based, Chinese hamster; details: mass spectrometry, vs DMSO
Procedure: Note that treatment leads to a decrease in Aβ42 species (1-42), and elevation in both Aβ37 (1-37) and Aβ38 (1-38). Mass spectrometric analysis of Aβ species were performed as previously described (Wang R, Sweeny D, Gandy S E, Sisodia S S. The profile of soluble amyloid β-protein in cultured cell media. J. Bio. Chem. 1996; 271: 31894-31902).

## C=C(CCC=C(C)C)[C@H]1CC[C@]2(C)[C@@H]1[C@H](O)C[C@@H]1[C@@]3(C)CC[C@H](O[C@@H]4O[C@H](CO)[C@@H](O)[C@H](O)[C@H]4O[C@@H]4O[C@H](CO)[C@@H](O)[C@H](O)[C@H]4O)C(C)(C)[C@@H]3CC[C@]12C [Rk1]
[1]; patent application pending
  production of Aβ42 in mammalian cells: lower the production of Aβ42
[1]
  relative effectiveness in reducing Aβ42 levels: most effective
γ-secretase; FIG. 15
  Aβ generation in a cell-free γ-secretase assay: inhibits Aβ generation
γ-secretase; cell-free γ-secretase assay, FIG. 15 (100 μM in A)
  Aβ42 generation in vitro: inhibit the Aβ42 production; also recorded: potently inhibited
γ-secretase; cell-free γ-secretase assay, FIG. 15B
  Aβ40 generation in vitro: inhibited both Aβ40 and Aβ42 with a similar potency
γ-secretase; cell-free γ-secretase assay, FIG. 15B, read-out: IC50 for Aβ40
  IC50: 27 ± 3 µM
γ-secretase; cell-free γ-secretase assay, FIG. 15B, read-out: IC50 for Aβ42
  IC50: 32 ± 5 µM
[2]
  Aβ37 (1-37): elevation
  Aβ38 (1-38): elevation
  Aβ42 species (1-42): decrease

Reference: patent US20060014704A1, “Compounds and their preparation for the treatment of Alzheimer's disease by inhibiting beta-amyloid peptide production” (priority 2004, published 2006)
